How the values were obtained:
Conditions in all cases: exposure time: 72 h
E57 [1] = patient-derived glioblastoma stem cells of mesenchymal subtype; assay: surviving fraction (nuclei count normalised to DMSO); higher = more cells surviving (less toxic)
E21 [2] = patient-derived glioblastoma stem cells of mesenchymal subtype; assay: as above
FT3469 [3] = normal neural stem cell line; assay: as above
E13 [4] = patient-derived glioblastoma stem cells of classical subtype; assay: as above
E34 [5] = patient-derived glioblastoma stem cells of proneural subtype; assay: as above
E28 [6] = patient-derived glioblastoma stem cells of classical subtype; assay: as above
E31 [7] = patient-derived glioblastoma stem cells of proneural subtype; assay: as above
E57 [8] = assay: phenotypic distance (Euclidean, principal components) from DMSO controls (arbitrary units); higher = stronger morphological change
E21 [9] = assay: as above
FT3469 [10] = assay: as above
E13 [11] = assay: as above
E34 [12] = assay: as above
E28 [13] = assay: as above
E31 [14] = assay: as above
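For phenotypic distance (Euclidean, principal components) from DMSO controls in this document: cell Painting imaging in 384-well plates, CellProfiler features reduced to at least 20 principal components, Euclidean distance versus same-plate DMSO vehicle wells (0.1% v/v), median over six images per well.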
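For surviving fraction (nuclei count normalised to DMSO) in this document: nuclei counted by high-content imaging of Hoechst-stained cells in laminin-coated 384-well plates, relative to 0.1% DMSO vehicle wells, with staurosporine as cell-death control.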

C#C[C@]1(O)CC[C@H]2[C@@H]3CCc4cc(OC5CCCC5)ccc4[C@H]3CC[C@@]21C [Quinestrol]
Conditions | phenotypic distance | surviving fraction
E13 [4], 4.1 nM | – | 1.06
E13 [4], 12.3 nM | – | 1.04
E13 [4], 37 nM | – | 1.11
E13 [4], 111.1 nM | – | 1.07
E13 [4], 333.3 nM | – | 1.02
E13 [4], 1000 nM | – | 0.946
E13 [4], 3000 nM | – | 0.347
E13 [11], 4.1 nM | 0.478 | –
E13 [11], 12.3 nM | 0.526 | –
E13 [11], 37 nM | 0.837 | –
E13 [11], 111.1 nM | 0.697 | –
E13 [11], 333.3 nM | 0.689 | –
E13 [11], 1000 nM | 1.18 | –
E13 [11], 3000 nM | 7.05 | –
E21 [2], 4.1 nM | – | 1.01
E21 [2], 12.3 nM | – | 0.938
E21 [2], 37 nM | – | 1.05
E21 [2], 111.1 nM | – | 0.982
E21 [2], 333.3 nM | – | 1.02
E21 [2], 1000 nM | – | 0.873
E21 [2], 3000 nM | – | 0.617
E21 [9], 4.1 nM | 0.608 | –
E21 [9], 12.3 nM | 0.48 | –
E21 [9], 37 nM | 0.746 | –
E21 [9], 111.1 nM | 0.53 | –
E21 [9], 333.3 nM | 0.819 | –
E21 [9], 1000 nM | 2.32 | –
E21 [9], 3000 nM | 6.37 | –
E28 [6], 4.1 nM | – | 1.13
E28 [6], 12.3 nM | – | 1.04
E28 [6], 37 nM | – | 1.08
E28 [6], 111.1 nM | – | 1.1
E28 [6], 333.3 nM | – | 1.04
E28 [6], 1000 nM | – | 1.19
E28 [6], 3000 nM | – | 1.01
E28 [13], 4.1 nM | 0.438 | –
E28 [13], 12.3 nM | 2.42 | –
E28 [13], 37 nM | 0.788 | –
E28 [13], 111.1 nM | 0.466 | –
E28 [13], 333.3 nM | 0.753 | –
E28 [13], 1000 nM | 0.514 | –
E28 [13], 3000 nM | 0.675 | –
E31 [7], 4.1 nM | – | 1.02
E31 [7], 12.3 nM | – | 0.942
E31 [7], 37 nM | – | 1.09
E31 [7], 111.1 nM | – | 1.07
E31 [7], 333.3 nM | – | 0.981
E31 [7], 1000 nM | – | 1.01
E31 [7], 3000 nM | – | 0.848
E31 [14], 4.1 nM | 0.447 | –
E31 [14], 12.3 nM | 0.67 | –
E31 [14], 37 nM | 1.03 | –
E31 [14], 111.1 nM | 0.71 | –
E31 [14], 333.3 nM | 0.698 | –
E31 [14], 1000 nM | 0.864 | –
E31 [14], 3000 nM | 3.81 | –
E34 [5], 4.1 nM | – | 1.01
E34 [5], 12.3 nM | – | 1.07
E34 [5], 37 nM | – | 1.01
E34 [5], 111.1 nM | – | 1.07
E34 [5], 333.3 nM | – | 1.15
E34 [5], 1000 nM | – | 0.967
E34 [5], 3000 nM | – | 0.918
E34 [12], 4.1 nM | 0.544 | –
E34 [12], 12.3 nM | 0.554 | –
E34 [12], 37 nM | 0.597 | –
E34 [12], 111.1 nM | 0.985 | –
E34 [12], 333.3 nM | 1.09 | –
E34 [12], 1000 nM | 0.707 | –
E34 [12], 3000 nM | 1.82 | –
E57 [1], 4.1 nM | – | 1.05
E57 [1], 12.3 nM | – | 1.05
E57 [1], 37 nM | – | 1.01
E57 [1], 111.1 nM | – | 1.06
E57 [1], 333.3 nM | – | 1.01
E57 [1], 1000 nM | – | 1.03
E57 [1], 3000 nM | – | 0.693
E57 [8], 4.1 nM | 1.71 | –
E57 [8], 12.3 nM | 1.01 | –
E57 [8], 37 nM | 0.583 | –
E57 [8], 111.1 nM | 0.81 | –
E57 [8], 333.3 nM | 0.452 | –
E57 [8], 1000 nM | 0.7 | –
E57 [8], 3000 nM | 3.72 | –
FT3469 [3], 4.1 nM | – | 0.963
FT3469 [3], 12.3 nM | – | 1.03
FT3469 [3], 37 nM | – | 1.11
FT3469 [3], 111.1 nM | – | 1.09
FT3469 [3], 333.3 nM | – | 1.2
FT3469 [3], 1000 nM | – | 0.888
FT3469 [3], 3000 nM | – | 0.938
FT3469 [10], 4.1 nM | 0.479 | –
FT3469 [10], 12.3 nM | 0.739 | –
FT3469 [10], 37 nM | 0.643 | –
FT3469 [10], 111.1 nM | 1.01 | –
FT3469 [10], 333.3 nM | 0.84 | –
FT3469 [10], 1000 nM | 0.699 | –
FT3469 [10], 3000 nM | 1.58 | –

Reference: the supplement of paper PMC13207355
